# Assays:
# [1] = test system: Eker rat leiomyoma tumor-derived cells (Elt3); assay: Proliferation of Eker rat leiomyoma tumor-derived cells (Elt3), CellTiter-Glo viability assay; assay type: cell-based; conditions: for proliferation of Eker rat myoma cell line (Elt3): different concentrations, 7 days incubation, FIG. 1 and FIG. 2, range comparable to estradiol
# Procedure: Elt3 cells were obtained from Cheryl Walker (University of Texas). In comparison to other cells, Elt3 cells were characterized to be tumorigenic in nude mice (C. Walker, Recent Prog. Horm. Res., January 2002; 57: 277). Elt3 cells were grown to confluence in T-75 flasks with DMEM containing 10% FCS at 37° C. and 5% CO2. The medium was changed into 1% CCS for 24 h. 1000 cells were seeded in 96-well-plates for 24 hours. Elt3 cells were incubated with test compounds for 7 days. The CellTiter-Glo® Luminescent Cell Viability Assay (Promega) was used for determination of the number of viable cells in culture based on quantitation of the ATP present, an indicator of metabolically active cells.
# Elt3 cells were obtained and grown to confluence and were seeded as described above. Elt3 cells were incubated with test compounds for 7 days. The CellTiter-Glo® Luminescent Cell Viability Assay (Promega) was used for determination of the number of viable cells in culture based on quantitation of the ATP present, an indicator of metabolically active cells.
# [2] = test system: human uterine leiomyoma xenografts; assay: Xenograft of human uterine leiomyoma in immunodeficient mice, graft weight; assay type: in vivo; conditions: 60 d, SCID mice with E2 and P pellets, p<0.05
# Procedure: Human uterine leiomyoma (UL) tissue was derived from any form of surgical intervention indicated for the respective diagnosis, either by hysterectomy with subsequent preparation of the tissues or by myomenucleation with or without morcellation for removal of the tissue from the abdominal cavity. Immediately after the surgery the UL tissue was placed into an appropriate sterile buffer (Vitron V7 buffer (U.S. Pat. No. 5,328,821) or Viaspan buffer for organ transplantation) at 4° C. for transport from the clinic. Under a sterile workbench, the UL tissue was cut into small pieces of 2×2×2 mm while keeping the tissue constantly moist. The small pieces of tissue were placed in tissue wells with PBS at room temperature for xenotransplantation. (M Fritsch et al. 2010, ISGE abstract & presentation). […] Therefore, graft weight was taken as a primary read-out parameter for growth of UL tissue (FIGS. 5 and 6). […]
# (§1) Experiment 2 (the Thioxoimidazolidine Derivative as Androgen Receptor Antagonist)—FIGS. 6 and 7 • Human myoma tissue from two different patients was grafted s.c. in SCID mice; and the mice were treated as described in method above. […] BrdU positive nuclei were visualized by immunohistochemical staining in formalin-fixed graft sections, pictures were taken, and BrdU-positive nuclei per area were counted using the MIRAX Histoquant software (3DHISTECH Ltd, Budapest, Hungary). […]
# primary myoma cells = assay: Proliferation of primary myoma cells, CellTiter-Glo viability assay; assay type: cell-based, human; conditions: 10^−6 M, 7 days; p<0.05 vs. DMSO; FIG. 3; range comparable to estradiol
# [3] = test system: human uterine leiomyoma xenografts; assay: Human xenograft cell proliferation (BrdU positive nuclei) in immunodeficient mice; assay type: in vivo; conditions: last week of Experiment 2, 15 mg/kg/d p.o. daily; two donors; FIG. 7
# Procedure: Human uterine leiomyoma (UL) tissue was derived from any form of surgical intervention indicated for the respective diagnosis, either by hysterectomy with subsequent preparation of the tissues or by myomenucleation with or without morcellation for removal of the tissue from the abdominal cavity. Immediately after the surgery the UL tissue was placed into an appropriate sterile buffer (Vitron V7 buffer (U.S. Pat. No. 5,328,821) or Viaspan buffer for organ transplantation) at 4° C. for transport from the clinic. Under a sterile workbench, the UL tissue was cut into small pieces of 2×2×2 mm while keeping the tissue constantly moist. The small pieces of tissue were placed in tissue wells with PBS at room temperature for xenotransplantation. (M Fritsch et al. 2010, ISGE abstract & presentation). […] Therefore, graft weight was taken as a primary read-out parameter for growth of UL tissue (FIGS. 5 and 6).
# as §1
smiles,measurement,setting,value
"CC(O)(CS(=O)(=O)c1ccc(F)cc1)C(=O)Nc1ccc(C#N)c(C(F)(F)F)c1 (stereo not drawn) [bicalutamide, N-[4-cyano-3-(trifluoromethyl)phenyl]-3-[(4-fluorophenyl)sulfonyl]-2-hydroxy-2-methylpropanamide]",effect on DHT-induced proliferation of Elt3 cells,"[1]; 10^−7 M bicalutamide with 10^−9 M DHT, p<0.05 vs. DHT, FIG. 4",abolished
same,graft weight reduction vs. respective controls,"[2]; Experiment 1: 15 mg/kg/d p.o. every 2nd day, tissue from three patients, FIG. 5",> 30%
C[C@]12CC[C@H]3[C@@H](CCC4=CC(=O)CC[C@@]43C)[C@@H]1CC[C@@H]2O [testosterone],proliferation of Eker rat myoma cell line (Elt3),[1],dose-dependent increase of proliferation
same,proliferation of primary myoma cells,primary myoma cells,significantly induce an increase of proliferation
"C[C@]12CCC(=O)C[C@@H]1CC[C@@H]1[C@@H]2CC[C@]2(C)[C@@H](O)CC[C@@H]12 [dihydrotestosterone, 5α-dihydrotestosterone]",proliferation of Elt3 cells,"[1]; 10^−9 M DHT, 7 days, p<0.05 vs. DMSO, FIG. 4",significantly increased
same,proliferation of Eker rat myoma cell line (Elt3),[1],dose-dependent increase of proliferation
same,proliferation of primary myoma cells,primary myoma cells,significantly induce an increase of proliferation
"CC(C)(O)COc1ccc(CN2C(=S)N(c3ccc(C#N)c(C(F)(F)F)c3)C(=O)C2(C)C)cn1 [thioxoimidazolidine derivative, 4-(3-{[6-(2-hydroxy-2-methylpropoxy)pyridin-3-yl]methyl}-4,4-dimethyl-5-oxo-2-thioxoimidazolidin-1-yl)-2-(trifluoromethyl)benzonitrile]",graft weight reduction vs. respective controls,"[2]; Experiment 2: 15 mg/kg/d p.o. daily, tissue from two patients, FIG. 6",> 50%
same,proliferation of grafts (BrdU-positive nuclei per area),[3],clearly reduced
